Here are results for 3 molecules from US12544431B2, “Peptides for the treatment of cancer and/or metastasis” (BCN PEPTIDES, S.A., priority 2019, dated 2026).

Data set [1] is described as follows: In vitro stability, half-life in human plasma. The data set is classed as in vitro ADME. Particulars: 90% human plasma, 37° C., RP-HPLC; read-out: t½ (hours) in human plasma (converted). How it is done:
The peptides and peptide dimer synthesized and prepared in accordance with Example 1 were dissolved in water at a concentration of 6 mg/mL and warmed up to 37° C.
Human plasma was obtained as a lyophilized solid (K3 EDTA Plasma, BBI Solutions, code S112-1), reconstituted with sterile 0.9% sodium chloride solution and stored at −20° C. Human plasma was thawed and incubated at 37° C. before use.
The peptides and peptide dimer were incubated in 90% human plasma at 37° C. for different times and then precipitated with two volume equivalents of methanol. The samples were cooled in an acetone-carbon dioxide bath for a few seconds and centrifuged for 12 minutes at 4° C. at approximately 10,000 rpm. The supernatant was filtered with a 0.45 μm PVDF filter and analyzed in triplicate by RP-HPLC using an isocratic method (Eluent A=0.1% TFA in water; Eluent B=0.07% TFA in ACN, Column=Kromasil C8, 100 Å, 5 μm, 250×4.6 mm, Flow=1 mL/min, Wavelength: 220 nm, Injection volume=20 μL, Temperature=60° C.). The disappearance of the compound was determined in relation to the area of the initial time to calculate its half-life.

Data set [2] has as its system RH30 rhabdomyosarcoma cells. Put plainly: Matrigel-coated transwell invasion assay, RH30 cells. It is filed as cell-based. Particulars: % invasive cells vs non-treated control. As for the experimental part: (§1) 10^5 RH30 or RD cells were plated in the upper chamber of a Matrigel-coated transwell (Corning) in 0.1 mL medium without FBS. Cells were previously incubated with different concentrations (0 nM, 100 nM, 200 nM, 500 nM and 1000 nM) of the peptides and peptide dimer for 48 hours, being also present in the medium during the cell invasion assay. In the lower chamber, 0.6 mL of medium with FBS was added. Cells were incubated at 37° ° C. for 24 hours.
(§2) After that, cells were fixed with 4% paraformaldehyde (Sigma) for 10 minutes, followed by washing with PBS. After removal of the Matrigel and remaining cells from the upper face of the membrane with a cotton swab, the cells present on the lower face were stained with a Hoechst dilution (Sigma) and were counted (5 fields for each well) with an inverted fluorescence microscope Nikon with a 10× objective. All experiments were made in triplicate. In Table 6 the % Invasiveness represents the mean percentage of invasive cells with respect to their controls.

Data set [3] relates to RD rhabdomyosarcoma cells. As to the kind of experiment: Matrigel-coated transwell invasion assay, RD cells. The data set is classed as cell-based. Particulars: % invasive cells vs non-treated control. How it is done:
as §1, §2

The mark [4] stands for this setting: 500 nM peptide, listed as Octanoyl-SEQ ID NO: 5—NH2.

Structures are written as SMILES. Marks after values point to notes of the source that are not given here. *1 amine or outer side, *2 acyl side, *3 side chain or, on linkers, in order; H or OH if unused. Where a SMILES comes first, the peptide text is derived from it. Bridges are numbered along the chain shown (N, C = ends). Roman numbers before positions name the chains, in order. [ ]: non-standard residue; d: D form. The star is where a group is joined. Phe(2,4,6-Me3) = Cc1cc(C)c(C[C@H](N)C(=O)O)c(C)c1; X1 = Cc1cc(C)c(CC(N[*:1])C(=O)[*:2])c(C)c1; pGlu = O=C1CC[C@@H](C(=O)O)N1; Octanoyl = CCCCCCCC(=O)*

On to `Cc1cc(C)c(C[C@H](NC(=O)[C@H](CCC(=O)O)NC(=O)[C@@H]2CCCN2C(=O)[C@H](CC(C)C)NC(=O)[C@H](CC(=O)O)NC(=O)[C@H](CSSC[C@H](NC(=O)[C@H](CO)NC(=O)[C@H](CC(N)=O)NC(=O)[C@H](CO)NC(=O)[C@H](CO)NC(=O)[C@H](CC(=O)O)NC(=O)[C@H](CCCNC(=N)N)NC(=O)[C@H](CCCCN)NC(=O)[C@@H]2CCC(=O)N2)C(=O)N[C@@H](CC(=O)O)C(=O)N[C@@H](CC(C)C)C(=O)N2CCC[C@H]2C(=O)N[C@@H](CCC(=O)O)C(=O)N[C@@H](Cc2c(C)cc(C)cc2C)C(=O)N[C@@H](CCCCN)C(N)=O)NC(=O)[C@H](CO)NC(=O)[C@H](CC(N)=O)NC(=O)[C@H](CO)NC(=O)[C@H](CO)NC(=O)[C@H](CC(=O)O)NC(=O)[C@H](CCCNC(=N)N)NC(=O)[C@H](CCCCN)NC(=O)[C@@H]2CCC(=O)N2)C(=O)N[C@@H](CCCCN)C(N)=O)c(C)c1` [(SEQ ID NO: 6-NH2)2 (disulfide bridge), (Pyr-Lys-Arg-Asp-Ser-Ser-Asn-Ser-Cys-Asp-Leu-Pro-Glu-Msa-Lys-NH2)2 (disulfide bridge)] (I: [pGlu]KRDSSNSCDLPE[Phe(2,4,6-Me3)]K-NH2 / II: [pGlu]KRDSSNSCDLPE[Phe(2,4,6-Me3)]K-NH2; disulfide I:9-II:9), for which the half-life at 0.6 mg/mL in data set [1] is 33.1 h. In addition, the “% Invasiveness RH30” value in data set [2] (100 nM peptide) was 82.46* %; in data set [2] (100 nM peptide, listed as (SEQ ID NO: 6—NH2)2), “significant reduction”; in data set [2] (200 nM peptide), 70.84* %; in data set [2] (500 nM peptide), 78.26* %; in data set [2] (1000 nM peptide) it was 57.59* %. Also, the “% Invasiveness RD” value in data set [3] (500 nM peptide) is given as 64.71%; in data set [3] (1000 nM peptide), 25.36* %; in data set [3] (1000 nM peptide, listed as (SEQ ID NO: 6—NH2)2) it was “significant decrease”.

Consider `CC(=O)N[C@@H](CCCCN)C(=O)N[C@@H](CCCNC(=N)N)C(=O)N[C@@H](CC(=O)O)C(=O)N[C@@H](CO)C(=O)N[C@@H](CO)C(=O)N[C@@H](CC(N)=O)C(=O)N[C@@H](CO)C(=O)N[C@@H](CS)C(=O)N[C@@H](CC(=O)O)C(=O)N[C@@H](CC(C)C)C(=O)N1CCC[C@H]1C(=O)N[C@@H](CCC(=O)O)C(=O)NC(Cc1c(C)cc(C)cc1C)C(=O)N[C@@H](CCCCN)C(N)=O` (stereo partly drawn) [Ac-SEQ ID NO: 5-NH2, Ac-Lys-Arg-Asp-Ser-Ser-Asn-Ser-Cys-Asp-Leu-Pro-Glu-Msa-Lys-NH2] (Ac-KRDSSNSCDLPE[X1]K-NH2), for which, in data set [1], the half-life at 0.6 mg/mL is 0.23 h. The “% Invasiveness RH30” value in data set [2] (100 nM peptide) is on record as 24.83* %; in data set [2] (100 nM peptide, listed as Ac-SEQ ID NO: 5—NH2), “significant reduction”; in data set [2] (500 nM peptide), 18.49* %. For the same molecule, the “% Invasiveness RD” value in data set [3] (100 nM peptide) is 100.80%; in data set [3] (500 nM peptide), 35.59%.

Consider `CCCCCCCC(=O)N[C@@H](CCCCN)C(=O)N[C@@H](CCCNC(=N)N)C(=O)N[C@@H](CC(=O)O)C(=O)N[C@@H](CO)C(=O)N[C@@H](CO)C(=O)N[C@@H](CC(N)=O)C(=O)N[C@@H](CO)C(=O)N[C@@H](CS)C(=O)N[C@@H](CC(=O)O)C(=O)N[C@@H](CC(C)C)C(=O)N1CCC[C@H]1C(=O)N[C@@H](CCC(=O)O)C(=O)N[C@@H](Cc1c(C)cc(C)cc1C)C(=O)N[C@@H](CCCCN)C(N)=O` [Octanoyl-SEQ ID NO: 5-NH2, Octanoyl-Lys-Arg-Asp-Ser-Ser-Asn-Ser-Cys-Asp-Leu-Pro-Glu-Msa-Lys-NH2] (Octanoyl-KRDSSNSCDLPE[Phe(2,4,6-Me3)]K-NH2), for which the half-life at 0.6 mg/mL in data set [1] is 0.15 h. In addition, the “% Invasiveness RH30” value was 120.81% in data set [2] (100 nM peptide), 41.12* % in data set [2] (500 nM peptide) and “significant reduction” in data set [2] (setting [4]). Further, the “% Invasiveness RD” value in data set [3] (100 nM peptide) is 56.90%; in data set [3] (500 nM peptide), 14.16* %; in data set [3] (setting [4]), “significant decrease”.
